One assay deals with L929 cells. The assay is described as follows: L929 cell necroptosis assay (TNFa + zVAD, CellTiter-Glo recovery), functional murine RIP1 assay. It is filed as cell-based. The settings on record: Mus musculus, L929, 18 h, read-out: L929-CTG-recovery, L929, TNFa + zVAD (IC50), L929 cells, zVAD-fmk, TNFa 2 ng/mL, 18 hours, CellTiter-Glo. The protocol:
(§1) In this example, U937 and L929 cells were exposed to compounds of the present disclosure and a cell necroptosis assay was conducted to evaluate compound activity in functional human RIP1 and murine RIP1 assays.
(§2) U937 and L929 cells were obtained from the American Type Culture Collection (Manassa, Va., USA). Both cells were maintained in logarithmic growth phase in complete RPMI 1640 media (Sigma, ST Louis, Mo., USA) supplemented with 10% fetal bovine serum (Sigma, ST Louis, Mo., USA) at 37° C. with 5% CO2. For necroptosis assay, L929 cells were plated for 18 h in 100 μL/well medium at 10K cells/well in Costar 96-well black clear-bottom plates (Fisher Scientific, Hampton, N.H., USA); U937 cells were plated on the day of the assay in 50 μL/well medium containing 60 uM zVAD-fmk (Lonza, Basel, Switzerland) at 50K cells/well. Medium from L929 cells were removed from the 96-well plates and replaced with 50 μL/well new medium containing 40 uM zVAD-fmk. Each compound of the present disclosure evaluated in this example was serially diluted in DMSO from 2.5 mM in 4-fold dilutions, and then diluted 1:125 in complete medium. 50 μL/well 2× of the compound was then added to the cells in the plates. The cells were pre-incubated with the compound for 1 hour at 37° C. with 5% CO2 and before addition of 10 μL/well 11×TNFa (Peprotech, Rocky Hill, N.J., USA) to give a final concentration of 2 ng/mL for TNFa. The relative amount of necroptosis cells was determined by luminescent using a Wallac Victor2 Luminometer (PerkinElmer, Waltham, Mass., USA) and a CellTiter-Glo® Luminescent Cell Viability Reagent Assay (Promega, Madison, Wis., USA) added per manufacturer instructions after 18 hours of TNFa stimulation at 37° C. with 5% CO2. This example establishes that embodiments of the compounds described herein have unexpectedly potent activity against human RIP1 and murine RIP1, which allows their assessment in in vivo mouse models of disease.
For orientation: ATP-based viability assays read luminescence as a measure of living cells.

Another assay deals with RIPK1 (Homo sapiens (Human), UniProt Q13546). Kind of assay: biochemical. In kind it is biochemical. The protocol:
In this example, compounds of the disclosure were evaluated using a biochemical assay using the ADP-Glo™ technology.
ADP-Glo™ (Promega, Madison, Wis., USA) reagents were thawed at ambient temperature. Kinase Detection Reagent was prepared by mixing kinase detection buffer with the lyophilized kinase detection substrate.
A […] stock volume of 5× Reaction Kinase Buffer was made by mixing 1000 μl of 1M MgCl2, 500 μl of 1M Tris-HCL pH7.4, 0.5 mg/ml (25 mg) of BSA, and 3475 μl of distilled H2O. A 3 ml 2× working stock volume of Reaction Kinase Buffer was made containing a final concentration of 100 μM DTT and 4 mM MnCl2.
Components of RIPK1 enzyme (Rigel Pharmaceuticals, South San Francisco, Calif., USA) were thawed on ice. Diluted RIPK1 was prepared in 1× Kinase Reaction Buffer (diluted from 2× buffer) to 31 ng/well.
1.0 ul of diluted compound was added to a 384 well plate in duplicate. […] The final reaction volume was 5.0 μl. The plate was quickly centrifuged and the reaction was incubated at 30° C. for 30 minutes. Adding 5 μl of ADP-Glo™ terminated the reaction. The plate was quickly centrifuged and the reaction was incubated at room temperature for 40 minutes. Kinase Detection Reagent was then added and incubated at room temperature for 30 minutes. The relative light unit (RLU) of kinase reaction was determined by luminescent (Luminescence 0.1 s) using a Wallac Victor2 Luminometer (PerkinElmer, Waltham, Mass., USA).

In a further assay the test system is U937 cells. Kind of assay: U937 cell necroptosis assay (TNFa + zVAD, CellTiter-Glo recovery), functional human RIP1 assay. It is filed as cell-based. The settings on record: Homo sapiens, U-937, 18 h, read-out: U937 Zvad TNF CTG Recovery, U937, TNFa + zVAD (IC50), U937 cells, zVAD-fmk, TNFa 2 ng/mL, 18 hours, CellTiter-Glo. The protocol:
as §1, §2

The mark [1] stands for this setting: RIPK1 enzyme 31 ng/well, 30° C. for 30 minutes, luminescence, read-out: RIPK1 ADP-Glo Kinase (IC50).

Read-outs that look alike come from different tables or passages of the source.

Sequence of RIPK1 (Q13546 whole entry, species assumed): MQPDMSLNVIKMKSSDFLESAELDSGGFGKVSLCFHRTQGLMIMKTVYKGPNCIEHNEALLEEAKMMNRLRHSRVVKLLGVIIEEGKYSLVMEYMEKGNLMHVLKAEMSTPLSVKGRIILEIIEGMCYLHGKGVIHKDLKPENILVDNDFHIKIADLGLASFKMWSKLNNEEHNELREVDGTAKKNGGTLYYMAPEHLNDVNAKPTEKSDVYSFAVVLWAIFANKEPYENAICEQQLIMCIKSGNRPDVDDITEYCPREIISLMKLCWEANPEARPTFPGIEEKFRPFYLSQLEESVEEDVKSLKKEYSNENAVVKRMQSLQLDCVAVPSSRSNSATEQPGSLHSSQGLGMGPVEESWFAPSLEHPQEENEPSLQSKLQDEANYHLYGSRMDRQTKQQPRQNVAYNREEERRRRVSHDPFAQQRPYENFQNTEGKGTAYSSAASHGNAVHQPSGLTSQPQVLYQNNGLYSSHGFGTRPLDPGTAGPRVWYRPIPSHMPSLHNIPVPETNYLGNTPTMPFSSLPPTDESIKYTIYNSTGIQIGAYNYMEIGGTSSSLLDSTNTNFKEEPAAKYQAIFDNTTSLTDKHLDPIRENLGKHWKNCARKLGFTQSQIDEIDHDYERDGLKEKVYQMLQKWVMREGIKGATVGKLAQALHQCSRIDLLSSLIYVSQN

Turning to `O=C(NC1CCc2ccccc2-n2ccnc21)c1nccc(-c2ccccc2)n1` (racemic) [Compound I-2, (±)-N-(5,6-Dihydro-4H-benzo[f]imidazo[1,2-a]azepin-4-yl)-4-phenylpyrimidine-2-carboxamide], the results for the IC50 in the assay on L929 cells, at RIPK1 (setting [1]) and with U937 cells were 10000 µM, 6.23 µM and 40.3 µM, respectively.

Consider `O=C(NC1COc2ccccc2-n2cccc21)c1ncn(Cc2ccccc2F)n1` (racemic) [Compound I-38, (±)-N-(6,7-Dihydrobenzo[b]pyrrolo[1,2-d][1,4]oxazepin-7-yl)-1-(2-fluorobenzyl)-1H-1,2,4-triazole-3-carboxamide], for which the IC50 is 9.79 µM in the assay on L929 cells, 0.0223 µM at RIPK1 (setting [1]) and 0.0439 µM in the assay on U937 cells.

As for `O=C(NC1CCc2ccccc2-n2cnnc21)c1n[nH]c(Cc2ccccc2)n1` (racemic) [Compound I-57, (±)-5-Benzyl-N-(5,6-dihydro-4H-benzo[f][1,2,4]triazolo[4,3-a]azepin-4-yl)-1H-1,2,4-triazole-3-carboxamide], the IC50 worked out at 10000 µM with L929 cells, 0.663 µM on RIPK1 (setting [1]) and 3.65 µM with U937 cells.

With `Cc1cnc2n1-c1ccccc1CCC2NC(=O)c1ncn(Cc2c(Cl)cccc2Cl)n1` (racemic) [Compound I-44, (±)-1-(2,6-Dichlorobenzyl)-N-(1-methyl-5,6-dihydro-4H-benzo[f]imidazo[1,2-a]azepin-4-yl)-1H-1,2,4-triazole-3-carboxamide], the IC50 in the assay with L929 cells came out at 10000 µM; on RIPK1 (setting [1]), 0.947 µM; in the assay with U937 cells, 1.67 µM.

In the case of `O=C(NC1CCc2ccc(N3CC4(CCOCC4)C3)cc2-n2ccnc21)c1n[nH]c(Cc2ccccc2)n1` (racemic) [Compound I-84, (±)-N-(9-(7-Oxa-2-azaspiro[3.5]nonan-2-yl)-5,6-dihydro-4H-benzo[f]imidazo[1,2-a]azepin-4-yl)-5-benzyl-1H-1,2,4-triazole-3-carboxamide], the results for the IC50 with L929 cells, on RIPK1 and with U937 cells were 8.79 µM, 0.119 µM and 0.0386 µM, respectively.

With `O=C(NC1CCc2ccc(N3CCC4(CCOCC4)CC3)cc2-n2ccnc21)c1ccn(Cc2ccccc2)n1` (racemic) [Compound I-77, (±)-N-(9-(3-Oxa-9-azaspiro[5.5]undecan-9-yl)-5,6-dihydro-4H-benzo[f]imidazo[1,2-a]azepin-4-yl)-1-benzyl-1H-pyrazole-3-carboxamide], the IC50 with L929 cells is 4.08 µM; at RIPK1 (setting [1]), 0.111 µM; in the assay on U937 cells, 0.0096 µM.

For the compound `CC(C)(O)C#Cc1ccc2c(c1)-n1ccnc1C(NC(=O)n1cc(Cc3ccc(F)cc3)cn1)CC2` (racemic) [Compound I-93, (±)-4-(4-Fluorobenzyl)-N-(9-(3-hydroxy-3-methylbut-1-yn-1-yl)-5,6-dihydro-4H-benzo[f]imidazo[1,2-a]azepin-4-yl)-1H-pyrazole-1-carboxamide], the IC50 was 5.17 µM in the assay on L929 cells, 0.0404 µM at RIPK1 (setting [1]) and 0.0371 µM with U937 cells.

With `O=C(NC1CCc2ccccc2-n2c1n[nH]c2=O)c1ncn(Cc2c(Cl)cccc2Cl)n1` (racemic) [Compound I-36, (±)-1-(2,6-Dichlorobenzyl)-N-(1-oxo-2,4,5,6-tetrahydro-1H-benzo[f][1,2,4]triazolo[4,3-a]azepin-4-yl)-1H-1,2,4-triazole-3-carboxamide], the IC50 in the assay with L929 cells is 16.1 µM; on RIPK1 (setting [1]) it was 2.8 µM; with U937 cells it was 0.714 µM.

Take `O=C(N[C@H]1C[S+]([O-])c2ccccc2-n2nnnc21)c1cc(Cc2ccccc2)on1` (stereo partly drawn) [Compound I-26, 5-Benzyl-N-((4R)-6-oxido-4,5-dihydrobenzo[b]tetrazolo[1,5-d][1,4]thiazepin-4-yl)isoxazole-3-carboxamide]: the IC50 came out at 10000 µM in the assay with L929 cells, 1.37 µM on RIPK1 (setting [1]) and 0.176 µM with U937 cells.

`O=C(NC1CCc2ccccc2-n2ccnc21)c1cc(Oc2ccccc2)ccn1` (racemic) [Compound I-51, (±)-N-(5,6-Dihydro-4H-benzo[f]imidazo[1,2-a]azepin-4-yl)-4-phenoxypicolinamide]: the IC50 is 17.1 µM with L929 cells, 0.0492 µM on RIPK1 (setting [1]) and 0.125 µM in the assay on U937 cells.

`O=C(N[C@H]1COc2ccccc2-n2nnnc21)c1ncn(Cc2c(Cl)cccc2Cl)n1` [Compound I-11, (R)-1-(2,6-Dichlorobenzyl)-N-(4,5-dihydrobenzo[6]tetrazolo[1,5-d][1,4]oxazepin-4-yl)-1H-1,2,4-triazole-3-carboxamide]: the IC50 in the assay on L929 cells was found to be 10000 µM; at RIPK1 (setting [1]) it was 0.0178 µM; in the assay on U937 cells, 0.0343 µM.

As to `O=C(N[C@H]1CSc2ccccc2-n2nnnc21)c1n[nH]c(Cc2ccccc2)n1` [Compound I-24, (R)-5-Benzyl-N-(4,5-dihydrobenzo[b]tetrazolo[1,5-d][1,4]thiazepin-4-yl)-1H-1,2,4-triazole-3-carboxamide], the IC50 with L929 cells was 2.14 µM; on RIPK1 (setting [1]), 0.0272 µM; in the assay with U937 cells it was 0.0144 µM.

For `O=C(NC1COc2ccccc2-n2cccc21)c1n[nH]c(Cc2ccc(F)cc2)n1` (racemic) [Compound I-37, (±)-N-(6,7-Dihydrobenzo[b]pyrrolo[1,2-d][1,4]oxazepin-7-yl)-5-(4-fluorobenzyl)-1H-1,2,4-triazole-3-carboxamide], the IC50 in the assay with L929 cells turned out to be 10000 µM; on RIPK1 (setting [1]), 1.14 µM; in the assay with U937 cells, 4.07 µM.

For the compound `O=C(NC1CCc2ccccc2-n2ccnc21)c1n[nH]c(Cc2c(Cl)cccc2Cl)n1` (racemic) [Compound I-19, (±)-5-(2,6-Dichlorobenzyl)-N-(5,6-dihydro-4H-benzo[f]imidazo[1,2-a]azepin-4-yl)-1H-1,2,4-triazole-3-carboxamide], the IC50 in the assay on L929 cells worked out at 10000 µM; on RIPK1 (setting [1]) it was 0.393 µM; in the assay with U937 cells, 0.96 µM.

For `O=C(NC1CCc2ccc(N3CC4(CCOCC4)C3)cc2-n2ccnc21)c1ccn(Cc2ccccc2)n1` (racemic) [Compound I-85, (±)-N-(9-(7-Oxa-2-azaspiro[3.5]nonan-2-yl)-5,6-dihydro-4H-benzo[f]imidazo[1,2-a]azepin-4-yl)-1-benzyl-1H-pyrazole-3-carboxamide], the IC50 with L929 cells was 1.35 µM; at RIPK1 (setting [1]), 0.168 µM; with U937 cells, 0.0309 µM.

Regarding `O=C(NC1CCc2ccc(N3CCC4(CCOCC4)CC3)cc2-n2ccnc21)c1cc(Oc2ccccc2)ccn1` (racemic) [Compound I-62, (±)-N-(9-(3-Oxa-9-azaspiro[5.5]undecan-9-yl)-5,6-dihydro-4H-benzo[f]imidazo[1,2-a]azepin-4-yl)-4-phenoxypicolinamide], the IC50 in the assay with L929 cells is 10.1 µM; on RIPK1 (setting [1]) it was 0.0695 µM; with U937 cells, 0.0301 µM.

Take `O=C(NC1COc2ccccc2-n2cccc21)c1cc(Oc2ccccc2)ccn1` (racemic) [Compound I-54, (±)-N-(6,7-Dihydrobenzo[b]pyrrolo[1,2-d][1,4]oxazepin-7-yl)-4-phenoxypicolinamide]: the IC50 in the assay on L929 cells came out at 10000 µM; on RIPK1 (setting [1]), 0.582 µM; in the assay with U937 cells it was 1.25 µM.

As to `O=C(N[C@H]1COc2ccc(N3CC4(CCOCC4)C3)cc2-n2ccnc21)c1cc(Oc2ccccc2)ccn1` [Compound I-88, (R)—N-(9-(7-Oxa-2-azaspiro[3.5]nonan-2-yl)-4,5-dihydrobenzo[b]imidazo[1,2-d][1,4]oxazepin-4-yl)-4-phenoxypicolinamide], the IC50 in the assay on L929 cells was 10000 µM; at RIPK1 (setting [1]) it was 0.112 µM; in the assay on U937 cells, 0.163 µM.
